US9730940B2, “Purine inhibitors of human phosphatidylinositol 3-kinase delta” (priority 2012, dated 2017)

These molecules were tested against PI3K-alpha (Homo sapiens (Human), UniProt P42336) (assay: HTRF PI3K biochemical assay, alpha isoform). Settings: ratio PI3K-alpha IC50 value/PI3K-delta IC50 value.
PI3K-alpha, sequence (P42336 whole entry, looked up, canonical isoform): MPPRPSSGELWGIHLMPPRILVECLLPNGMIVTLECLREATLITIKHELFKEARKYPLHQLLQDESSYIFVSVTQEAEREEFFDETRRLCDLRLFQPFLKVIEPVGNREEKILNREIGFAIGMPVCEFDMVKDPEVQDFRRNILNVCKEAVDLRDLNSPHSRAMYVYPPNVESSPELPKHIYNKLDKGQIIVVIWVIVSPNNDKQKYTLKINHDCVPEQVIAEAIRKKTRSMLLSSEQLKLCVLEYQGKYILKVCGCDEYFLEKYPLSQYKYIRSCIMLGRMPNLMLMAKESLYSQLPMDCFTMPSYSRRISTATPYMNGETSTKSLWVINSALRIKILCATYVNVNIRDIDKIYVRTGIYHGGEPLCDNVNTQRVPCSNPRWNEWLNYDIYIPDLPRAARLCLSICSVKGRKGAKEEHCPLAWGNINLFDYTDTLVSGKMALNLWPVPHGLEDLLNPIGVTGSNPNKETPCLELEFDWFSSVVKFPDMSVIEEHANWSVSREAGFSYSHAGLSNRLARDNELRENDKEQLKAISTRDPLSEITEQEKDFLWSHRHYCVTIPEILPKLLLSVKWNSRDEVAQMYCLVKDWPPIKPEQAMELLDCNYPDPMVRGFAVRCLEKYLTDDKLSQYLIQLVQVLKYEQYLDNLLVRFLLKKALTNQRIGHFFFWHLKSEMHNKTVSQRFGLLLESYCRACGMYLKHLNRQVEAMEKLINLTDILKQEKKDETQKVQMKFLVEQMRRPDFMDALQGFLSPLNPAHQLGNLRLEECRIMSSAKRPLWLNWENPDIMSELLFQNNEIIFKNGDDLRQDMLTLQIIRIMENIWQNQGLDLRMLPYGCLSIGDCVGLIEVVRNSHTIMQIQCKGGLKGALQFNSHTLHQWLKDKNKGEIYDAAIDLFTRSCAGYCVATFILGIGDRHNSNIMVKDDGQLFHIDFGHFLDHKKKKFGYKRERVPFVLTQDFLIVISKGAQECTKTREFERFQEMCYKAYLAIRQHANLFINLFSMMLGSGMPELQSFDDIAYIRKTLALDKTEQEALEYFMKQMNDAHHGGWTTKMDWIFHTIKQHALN
PI3K-alpha, sequence (P27986 whole entry partner, looked up, canonical isoform): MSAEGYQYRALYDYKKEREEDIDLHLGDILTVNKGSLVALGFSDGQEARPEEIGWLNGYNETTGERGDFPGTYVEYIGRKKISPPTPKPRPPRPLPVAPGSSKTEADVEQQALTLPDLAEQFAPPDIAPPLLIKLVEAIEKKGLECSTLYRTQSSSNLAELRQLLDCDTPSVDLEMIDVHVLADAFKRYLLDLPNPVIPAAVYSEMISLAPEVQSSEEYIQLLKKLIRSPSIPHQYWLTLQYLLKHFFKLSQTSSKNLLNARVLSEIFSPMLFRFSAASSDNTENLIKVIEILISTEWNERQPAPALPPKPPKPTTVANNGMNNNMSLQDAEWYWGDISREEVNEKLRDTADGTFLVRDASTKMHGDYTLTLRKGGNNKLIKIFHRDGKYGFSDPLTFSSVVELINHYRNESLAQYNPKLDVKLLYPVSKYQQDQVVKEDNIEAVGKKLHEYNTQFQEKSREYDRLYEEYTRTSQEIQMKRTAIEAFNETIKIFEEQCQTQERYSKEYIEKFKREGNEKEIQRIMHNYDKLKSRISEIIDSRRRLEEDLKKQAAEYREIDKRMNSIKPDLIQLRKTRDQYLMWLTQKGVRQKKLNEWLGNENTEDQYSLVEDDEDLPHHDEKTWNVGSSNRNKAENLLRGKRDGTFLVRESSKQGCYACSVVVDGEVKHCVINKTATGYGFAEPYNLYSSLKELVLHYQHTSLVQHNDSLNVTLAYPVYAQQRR

SMILES | Relative Selectivity versus PI3Kalpha
CCOC(=O)N1CC[C@H](Sc2ncnc3c2nc(-c2cnn(CC)c2C)n3C)C1 [Compound 10-8, (S)-ethyl 3-((8-(1-ethyl-5-methyl-1H-pyrazol-4-yl)-9-methyl-9H-purin-6-yl)thio)pyrrolidine-1-carboxylate] | >10
CCn1ncc(-c2nc3c(S[C@H]4CCN(C(=O)OCC(C)C)C4)ncnc3n2C)c1C [Compound 10-9, (S)-isobutyl 3-((8-(1-ethyl-5-methyl-1H-pyrazol-4-yl)-9-methyl-9H-purin-6-yl)thio)pyrrolidine-1-carboxylate] | >10
CCn1ncc(-c2nc3c(S[C@H]4CCN(C(=O)c5ccn(C)n5)C4)ncnc3n2C)c1C [Compound 10-10, (S)-(3-((8-(1-ethyl-5-methyl-1H-pyrazol-4-yl)-9-methyl-9H-purin-6-yl)thio)pyrrolidin-1-yl)(1-methyl-1H-pyrazol-3-yl)methanone] | >10
CCn1ncc(-c2nc3c(S[C@H]4CCN(C(=O)c5coc(C)n5)C4)ncnc3n2C)c1C [Compound 10-11, (S)-(3-((8-(1-ethyl-5-methyl-1H-pyrazol-4-yl)-9-methyl-9H-purin-6-yl)thio)pyrrolidin-1-yl)(2-methyloxazol-4-yl)methanone] | >10
CCn1ncc(-c2nc3c(S[C@H]4CCN(c5ccncn5)C4)ncnc3n2C)c1C [Compound 10-12, (S)-8-(1-ethyl-5-methyl-1H-pyrazol-4-yl)-9-methyl-6-((1-(pyrimidin-4-yl)pyrrolidin-3-yl)thio)-9H-purine] | >10
CCn1ncc(-c2nc3c(S[C@H]4CCN(c5ncnc6sccc56)C4)ncnc3n2C)c1C [Compound 10-13, (S)-4-(3-((8-(1-ethyl-5-methyl-1H-pyrazol-4-yl)-9-methyl-9H-purin-6-yl)thio)pyrrolidin-1-yl)thieno[2,3-d]pyrimidine] | >10
CCn1ncc(-c2nc3c(CC4CCN(C(=O)OC(C)(C)C)C4)ncnc3n2C)c1C (centres unmarked) [Compound 11-1, tert-butyl 3-((8-(1-ethyl-5-methyl-1H-pyrazol-4-yl)-9-methyl-9H-purin-6-yl)methyl)pyrrolidine-1-carboxylate] | >10
CCn1ncc(-c2nc3c(CC4CCN(C(=O)C5CCOCC5)C4)ncnc3n2C)c1C (centres unmarked) [Compound 11-2, (3-((8-(1-ethyl-5-methyl-1H-pyrazol-4-yl)-9-methyl-9H-purin-6-yl)methyl)pyrrolidin-1-yl)(tetrahydro-2H-pyran-4-yl)methanone] | >10
CCC(=O)N1CCC(Cc2ncnc3c2nc(-c2cnn(CC)c2C)n3C)C1 (centres unmarked) [Compound 11-3, 1-(3-((8-(1-ethyl-5-methyl-1H-pyrazol-4-yl)-9-methyl-9H-purin-6-yl)methyl)pyrrolidin-1-yl)propan-1-one] | >10
CCC(=O)N1CC[C@H](Oc2ncnc3c2nc(Oc2cccc(C)c2C)n3C)C1 [Compound 12-1, 8-(2,3-dimethylphenoxy)-9-methyl-6-{[(3S)-1-propanoylpyrrolidin-3-yl]oxy}-9H-purine] | 4
CCC(=O)N1CC[C@H](Oc2ncnc3c2nc(Oc2cc(F)cc(OC)c2)n3C)C1 [Compound 12-2, 8-(3-fluoro-5-methoxyphenoxy)-9-methyl-6-{[(3S)-1-propanoylpyrrolidin-3-yl]oxy}-9H-purine] | >10
CCC(=O)N1CC[C@H](Oc2ncnc3c2nc(Oc2cnc(C)nc2)n3C)C1 [Compound 12-3, 9-methyl-8-[(2-methylpyrimidin-5-yl)oxy]-6-{[(3S)-1-propanoylpyrrolidin-3-yl]oxy}-9H-purine] | >10
CCC(=O)N1CC[C@H](Oc2ncnc3c2nc(Oc2ccc(OC)c(F)c2)n3C)C1 [Compound 12-4, 8-(3-fluoro-4-methoxyphenoxy)-9-methyl-6-{[(3S)-1-propanoylpyrrolidin-3-yl]oxy}-9H-purine] | >10
CCn1c(N(C)CC(C)C)nc2c(O[C@H]3CCN(C(=O)OC(C)(C)C)C3)ncnc21 [Compound 13-1, tert-butyl (3S)-3-({9-ethyl-8-[methyl(2-methylpropyl)amino]-9H-purin-6-yl}oxy)pyrrolidine-1-carboxylate] | >10
CCn1c(N(C)CCO)nc2c(O[C@H]3CCN(C(=O)OC(C)(C)C)C3)ncnc21 [Compound 13-2, tert-butyl (3S)-3-({9-ethyl-8-[(2-hydroxyethyl)(methyl)amino]-9H-purin-6-yl}oxy)pyrrolidine-1-carboxylate] | >10
CCn1c(N2CCC(S(C)(=O)=O)C2)nc2c(O[C@H]3CCN(C(=O)OC(C)(C)C)C3)ncnc21 (stereo partly drawn) [Compound 13-3, tert-butyl (3S)-3-({9-ethyl-8-[3-(methylsulfonyl)pyrrolidin-1-yl]-9H-purin-6-yl}oxy)pyrrolidine-1-carboxylate] | >10
CCn1c(N2CCC(C)CC2)nc2c(O[C@H]3CCN(C(=O)OC(C)(C)C)C3)ncnc21 [Compound 13-4, tert-butyl (3S)-3-{[9-ethyl-8-(4-methylpiperidin-1-yl)-9H-purin-6-yl]oxy}pyrrolidine-1-carboxylate] | >10
CCn1c(N2CCC(c3ccccc3)CC2)nc2c(O[C@H]3CCN(C(=O)OC(C)(C)C)C3)ncnc21 [Compound 13-5, tert-butyl (3S)-3-{[9-ethyl-8-(4-phenylpiperidin-1-yl)-9H-purin-6-yl]oxy}pyrrolidine-1-carboxylate] | >10
CCn1c(N(C)CCOC)nc2c(O[C@H]3CCN(C(=O)OC(C)(C)C)C3)ncnc21 [Compound 13-6, tert-butyl (3S)-3-({9-ethyl-8-[(2-methoxyethyl)(methyl)amino]-9H-purin-6-yl}oxy)pyrrolidine-1-carboxylate] | >10
CCn1c(N(C)C(C)C)nc2c(O[C@H]3CCN(C(=O)OC(C)(C)C)C3)ncnc21 [Compound 13-7, tert-butyl (3S)-3-({9-ethyl-8-[methyl(1-methylethyl)amino]-9H-purin-6-yl}oxy)pyrrolidine-1-carboxylate] | >10
CCn1c(N2CCC(C)C2)nc2c(O[C@H]3CCN(C(=O)OC(C)(C)C)C3)ncnc21 (stereo partly drawn) [Compound 13-8, tert-butyl (3S)-3-{[9-ethyl-8-(3-methylpyrrolidin-1-yl)-9H-purin-6-yl]oxy}pyrrolidine-1-carboxylate] | >10
CCC(=O)N1CC[C@H](Oc2ncnc3c2nc(C2=CCOCC2)n3CC)C1 [Compound 14-1, 8-(3,6-dihydro-2H-pyran-4-yl)-9-ethyl-6-{[(3S)-1-propanoylpyrrolidin-3-yl]oxy}-9H-purine] | >10
CCC(=O)N1CC[C@H](Oc2ncnc3c2nc(C2CC2)n3C)C1 [Compound 14-2, 8-cyclopropyl-9-methyl-6-{[(3S)-1-propanoylpyrrolidin-3-yl]oxy}-9H-purine] | >10
